Literature values in patent US20230022060A1, “TURKESTERONE HYDROXYPROPYL B-CYCLIC DEXTRIN COMPLEX AND METHOD OF MANUFACTURING THEREOF” (Gorilla Mind, LLC, priority 2021, published 2023).

What was measured:
[1] = system: Staphylococcus aureus, Bacillus subtilis and Escherichia coli; details: three bacteria
[2] = 100 mL water at 25° C.

amount that can be dissolved in water [2]	Compound	difference of antimicrobial activity between chlorogenic acid and its complex [1]
	O=C(/C=C/c1ccc(O)c(O)c1)O[C@@H]1C[C@](O)(C(=O)O)C[C@@H](O)[C@H]1O [chlorogenic acid]	No significant difference
About 14 g in 100 mL water	OC[C@H]1O[C@@H]2O[C@H]3[C@H](O)[C@@H](O)[C@@H](O[C@H]4[C@H](O)[C@@H](O)[C@@H](O[C@H]5[C@H](O)[C@@H](O)[C@@H](O[C@H]6[C@H](O)[C@@H](O)[C@@H](O[C@H]7[C@H](O)[C@@H](O)[C@@H](O[C@H]1[C@H](O)[C@H]2O)O[C@@H]7CO)O[C@@H]6CO)O[C@@H]5CO)O[C@@H]4CO)O[C@@H]3CO [α-cyclodextrin]	
